Patent US20170066759A1, “AROMATIC 5-MEMBERED HETEROCYCLIC DERIVATIVE HAVING TRPV4-INHIBITING ACTIVITY” (Shionogi & Co., Ltd., priority 2012, published 2017)
pIC50: −log10 of the molar value.

Biological target: T1, human TRPV4 (hTRPV4/CHO cells) (Homo sapiens, UniProt Q9HBA0)
T1 construct: expressed in transfected cells; host or cells: CHO-K1
Experiment: Test Example 1: TRPV4 inhibitory activity (IC50 value), 4α-PDD stimulation, Fluo4 calcium fluorescence (FLIPR TETRA)
Assay type: cell-based
Conditions: Test Example 1, 4α-PDD stimulation, read-out: Test 1 IC50

T1 sequence (Q9HBA0 whole entry): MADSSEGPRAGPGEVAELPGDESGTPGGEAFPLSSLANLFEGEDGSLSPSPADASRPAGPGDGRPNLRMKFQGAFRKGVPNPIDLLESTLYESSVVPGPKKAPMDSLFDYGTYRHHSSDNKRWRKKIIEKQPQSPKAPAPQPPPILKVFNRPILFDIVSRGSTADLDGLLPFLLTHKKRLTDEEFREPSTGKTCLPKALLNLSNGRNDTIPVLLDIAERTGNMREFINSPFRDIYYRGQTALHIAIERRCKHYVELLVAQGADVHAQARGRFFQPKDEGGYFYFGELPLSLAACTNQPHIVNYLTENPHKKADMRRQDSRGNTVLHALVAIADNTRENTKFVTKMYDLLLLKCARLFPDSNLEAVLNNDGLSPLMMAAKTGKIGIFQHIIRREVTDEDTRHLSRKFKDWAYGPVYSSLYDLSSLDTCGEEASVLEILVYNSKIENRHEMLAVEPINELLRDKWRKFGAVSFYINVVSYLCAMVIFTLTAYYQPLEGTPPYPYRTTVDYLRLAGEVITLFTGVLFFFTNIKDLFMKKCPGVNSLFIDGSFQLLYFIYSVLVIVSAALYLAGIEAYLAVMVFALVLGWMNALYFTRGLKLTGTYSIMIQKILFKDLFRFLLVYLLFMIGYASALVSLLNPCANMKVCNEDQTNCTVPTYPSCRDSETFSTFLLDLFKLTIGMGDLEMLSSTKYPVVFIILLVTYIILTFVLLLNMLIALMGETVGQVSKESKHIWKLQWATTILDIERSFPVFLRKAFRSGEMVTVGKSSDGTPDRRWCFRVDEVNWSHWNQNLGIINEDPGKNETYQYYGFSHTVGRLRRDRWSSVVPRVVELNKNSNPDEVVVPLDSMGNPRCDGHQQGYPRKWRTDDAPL

Row | Compound | pIC50
1 | CNC(=O)NCc1nc(CO)sc1-c1csc(NC(=O)Cc2ccc(S(=O)(=O)C(F)(F)F)cc2)n1 [Compound I-389] | > 7.00
2 | CN(C)C(=O)NCc1nc(CO)sc1-c1csc(NC(=O)Cc2ccc(S(=O)(=O)C(F)(F)F)cc2)n1 [Compound I-390] | > 7.00
3 | CN(Cc1nc(CO)sc1-c1csc(NC(=O)Cc2ccc(S(=O)(=O)C(F)(F)F)cc2)n1)C(N)=O [Compound I-391] | 6.00 to 7.00
4 | Cc1nc(CC#N)sc1-c1csc(NC(=O)Cc2ccc(S(=O)(=O)C(F)(F)F)cc2)n1 [Compound I-392] | > 7.00
5 | CC(=O)N(C)Cc1nc(CO)sc1-c1csc(NC(=O)Cc2ccc(S(=O)(=O)C(F)(F)F)cc2)n1 [Compound I-393] | 6.00 to 7.00
6 | Cc1nc(C)c(-c2csc(NC(=O)[C@@H]3CCN(c4ncc(C(F)(F)F)cn4)C3)n2)s1 [Compound I-394] | > 7.00
7 | N#CCc1nc(CO)sc1-c1csc(NC(=O)C2CN(c3ncc(C(F)(F)F)cn3)C2)n1 [Compound I-395] | > 7.00
8 | Cc1nc(CN)sc1-c1csc(NC(=O)Cc2ccc(S(=O)(=O)C(F)(F)F)cc2)n1 [Compound I-396] | > 7.00
9 | CC(=O)NCc1nc(C)c(-c2csc(NC(=O)Cc3ccc(S(=O)(=O)C(F)(F)F)cc3)n2)s1 [Compound I-397] | 6.00 to 7.00
10 | Cc1nc(CNC(N)=O)sc1-c1csc(NC(=O)Cc2ccc(S(=O)(=O)C(F)(F)F)cc2)n1 [Compound I-398] | 5.10 to 6.00
11 | Cc1nc(CNS(C)(=O)=O)sc1-c1csc(NC(=O)Cc2ccc(S(=O)(=O)C(F)(F)F)cc2)n1 [Compound I-399] | 5.10 to 6.00
12 | COC(=O)NCc1nc(C)c(-c2csc(NC(=O)Cc3ccc(S(=O)(=O)C(F)(F)F)cc3)n2)s1 [Compound I-400] | 6.00 to 7.00
13 | Cc1nc(C)c(-c2csc(NC(=O)CC3CN(c4ncc(C(F)(F)F)cn4)C3)n2)s1 [Compound I-401] | 6.00 to 7.00
14 | Cc1nc(C#N)sc1-c1csc(NC(=O)Cc2ccc(S(=O)(=O)C(F)(F)F)cc2)n1 [Compound I-402] | 6.00 to 7.00
15 | Cc1nc(CO)sc1-c1csc(NC(=O)C2CN(S(=O)(=O)C(F)(F)F)C2)n1 [Compound I-403] | 6.00 to 7.00
16 | Cc1nc(C(=N)N)sc1-c1csc(NC(=O)Cc2ccc(S(=O)(=O)C(F)(F)F)cc2)n1 [Compound I-404] | 6.00 to 7.00
17 | Cc1nc(CO)sc1-c1csc(NC(=O)[C@H]2C[C@@H](c3ccc(C(F)(F)F)cc3)C2)n1 [Compound I-405] | > 7.00
18 | Cc1nc(CO)sc1-c1csc(NC(=O)Cn2cnc(C(F)(F)F)c2)n1 [Compound I-406] | 5.10 to 6.00
19 | NC(=O)CCc1nc(CO)sc1-c1csc(NC(=O)Cc2ccc(S(=O)(=O)C(F)(F)F)cc2)n1 [Compound I-407] | 6.00 to 7.00
20 | Cc1nc(C)c(-c2csc(NC(=O)Cc3cccc(Br)c3)n2)s1 [Compound I-408] | > 7.00
21 | Cc1nc(C)c(-c2csc(NC(=O)Cc3cccc(N)c3)n2)s1 [Compound I-409] | 6.00 to 7.00
22 | Cc1nc(CO)sc1-c1csc(NC(=O)Cc2cnc(C(F)(F)F)cn2)n1 [Compound I-410] | > 7.00
23 | Cc1nc(CC(N)=O)sc1-c1csc(NC(=O)Cc2ccc(S(=O)(=O)C(F)(F)F)cc2)n1 [Compound I-411] | 6.00 to 7.00
24 | CN(C)Cc1nc(CO)sc1-c1csc(NC(=O)Cc2ccc(S(=O)(=O)C(F)(F)F)cc2)n1 [Compound I-412] | 5.10 to 6.00
25 | Cc1nc(C)c(-c2csc(NC(=O)Cc3ccc(NC(=O)c4ccccc4)cc3)n2)s1 [Compound I-413] | 6.00 to 7.00
26 | CC(=O)Nc1cccc(CC(=O)Nc2nc(-c3sc(C)nc3C)cs2)c1 [Compound I-414] | 5.10 to 6.00
27 | Cc1nc(C)c(-c2csc(NC(=O)Cc3cccc(NC(=O)C(C)C)c3)n2)s1 [Compound I-415] | 6.00 to 7.00
28 | Cc1nc(C)c(-c2csc(NC(=O)Cc3cccc(NC(=O)C4CCCCC4)c3)n2)s1 [Compound I-416] | > 7.00

Row | Compound | pIC50
29 | Cc1nc(C)c(-c2csc(NC(=O)Cc3cccc(NC(=O)C(F)(F)F)c3)n2)s1 [Compound I-417] | > 7.00
30 | Cc1nc(C)c(-c2csc(NC(=O)Cc3cccc(NS(=O)(=O)c4ccccc4)c3)n2)s1 [Compound I-418] | > 7.00
31 | Cc1nc(CO)oc1-c1csc(NC(=O)Cn2cc(C(F)(F)F)cn2)n1 [Compound I-419] | 5.10 to 6.00
32 | Cc1nc(C)c(-c2csc(NC(=O)Cn3cc(CNC(=O)OC(C)(C)C)nn3)n2)s1 [Compound I-421] | 5.10 to 6.00
33 | Cc1nc(C)c(-c2csc(NC(=O)Cn3cc(-c4ccc(S(C)(=O)=O)cc4)nn3)n2)s1 [Compound I-422] | 6.00 to 7.00
34 | Cc1nc(C)c(-c2csc(NC(=O)Cn3cc(-c4ccc(Cl)cc4)nn3)n2)s1 [Compound I-423] | > 7.00
35 | Cc1nc(C)c(-c2csc(NC(=O)Cn3cc(COc4ccccc4)nn3)n2)s1 [Compound I-424] | > 7.00
36 | Cc1nc(C)c(-c2csc(NC(=O)Cn3cc(CNc4ccccc4)nn3)n2)s1 [Compound I-425] | 6.00 to 7.00
37 | Cc1nc(C)c(-c2csc(NC(=O)Cn3cc(-c4ccccn4)nn3)n2)s1 [Compound I-426] | 5.10 to 6.00
38 | Cc1nc(C)c(-c2csc(NC(=O)Cn3cc(-c4ccc(N(C)C)cc4)nn3)n2)s1 [Compound I-427] | 6.00 to 7.00
39 | Cc1nc(C)c(-c2csc(NC(=O)Cn3cc(Cn4cccc4)nn3)n2)s1 [Compound I-428] | 6.00 to 7.00
40 | Cc1nc(C)c(-c2csc(NC(=O)Cn3cc(CCCC#N)nn3)n2)s1 [Compound I-429] | 5.10 to 6.00
41 | Cc1nc(C)c(-c2csc(NC(=O)Cn3cc(C4CC4)nn3)n2)s1 [Compound I-430] | 6.00 to 7.00
42 | CCOc1cn(CC(=O)Nc2nc(-c3sc(C)nc3C)cs2)nn1 [Compound I-431] | 5.10 to 6.00
43 | Cc1nc(C)c(-c2csc(NC(=O)Cc3cccc(N(C)C(=O)c4ccccc4)c3)n2)s1 [Compound I-432] | 6.00 to 7.00
44 | Cc1nc(CO)sc1-c1csc(NC(=O)C2CN(S(=O)(=O)CCC(F)(F)F)C2)n1 [Compound I-433] | 6.00 to 7.00
45 | COC(=O)N(C)Cc1nc(CO)sc1-c1csc(NC(=O)Cc2ccc(S(=O)(=O)C(F)(F)F)cc2)n1 [Compound I-434] | > 7.00
46 | COC(=O)NCc1nc(CO)sc1-c1csc(NC(=O)Cc2ccc(S(=O)(=O)C(F)(F)F)cc2)n1 [Compound I-435] | > 7.00
47 | CN(Cc1nc(CO)sc1-c1csc(NC(=O)Cc2ccc(S(=O)(=O)C(F)(F)F)cc2)n1)C(=O)CO [Compound I-436] | 6.00 to 7.00
48 | Cc1nc(CCO)sc1-c1csc(NC(=O)Cc2ccc(S(=O)(=O)C(F)(F)F)cc2)n1 [Compound I-437] | > 7.00
49 | CCOCC(=O)NCc1nc(CO)sc1-c1csc(NC(=O)Cc2ccc(S(=O)(=O)C(F)(F)F)cc2)n1 [Compound I-438] | > 7.00
50 | O=C(Cc1ccc(S(=O)(=O)C(F)(F)F)cc1)Nc1nc(-c2sc(CO)nc2CNC(=O)C2(C(F)(F)F)CC2)cs1 [Compound I-439] | > 7.00
51 | NC(=O)OCC(=O)NCc1nc(CO)sc1-c1csc(NC(=O)Cc2ccc(S(=O)(=O)C(F)(F)F)cc2)n1 [Compound I-440] | 6.00 to 7.00
52 | CNC(=N)c1nc(C)c(-c2csc(NC(=O)Cc3ccc(S(=O)(=O)C(F)(F)F)cc3)n2)s1 [Compound I-441] | 6.00 to 7.00
53 | Cc1nc(CO)sc1-c1csc(NC(=O)NCc2ccc(Cl)cc2)n1 [Compound I-442] | 6.00 to 7.00
54 | Cc1nc(C)c(-c2csc(NC(=O)Cc3cccc(I)c3)n2)s1 [Compound I-443] | > 7.00
55 | COc1nc(C)c(-c2csc(NC(=O)Cc3ccc(S(=O)(=O)C(F)(F)F)cc3)n2)s1 [Compound I-444] | > 7.00
